Experiments:
[1] = tested on: interferon (α); test: Cytokine Induction in Human Cells: interferon (α) by ELISA; assay type: cell-based; conditions: PBMC; human PBMCs, incubated 18 to 24 hours, lowest concentration found to induce interferon
Procedure, shortened: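 Healthy-donor human PBMCs (1.5–2×10^6 cells/mL final, RPMI with 10% FBS) exposed to serially diluted compound (≤1% DMSO) for 18–24 h at 37 °C, 5% CO2. Supernatant IFN-α measured by ELISA; value reported is lowest concentration inducing interferon.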

[2] = tested on: tumor necrosis factor (α); test: Cytokine Induction in Human Cells: tumor necrosis factor (α) by ELISA; assay type: cell-based; conditions: PBMC; human PBMCs, incubated 18 to 24 hours, lowest concentration found to induce tumor necrosis factor
Procedure, shortened: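 Healthy-donor PBMCs (1.5–2×10^6 cells/mL final, RPMI with 10% FBS) incubated 18–24 h at 37 °C with compound in three- or ten-fold serial dilutions, DMSO ≤1% final. Supernatant TNF measured by ELISA; value is lowest concentration inducing TNF.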

melting point [°C] | Compound | minimal effective concentration [1] [µM] | minimal effective concentration [2] [µM]
171.5 to 172.5 | Cc1nc2c(N)nc3ccccc3c2n1CCCCNC(=O)Nc1ccccc1 [Example 144, N-[4-(4-amino-2-methyl-1H-imidazo[4,5-c]quinolin-1-yl)butyl]-N′-phenylurea] | 0.04 | 0.37
174.2 to 175.8 | COCCc1nc2c(N)nc3ccccc3c2n1CCCNC(=O)OC(C)(C)C [Example 148, tert-butyl 3-[4-amino-2-(2-methoxyethyl)-1H-imidazo[4,5-c]quinolin-1-yl]propylcarbamate] | 0.04 | 0.04
142.8 to 144 | CCCCc1nc2c(N)nc3ccccc3c2n1CCCNC(=S)Nc1ccccc1 [Example 149, N-[3-(4-amino-2-butyl-1H-imidazo[4,5-c]quinolin-1-yl)propyl]-N′-phenylthiourea] | 0.04 | 0.37
185.5 to 186.4 | CCCCNC(=O)NCCCn1c(CCCC)nc2c(N)nc3ccccc3c21 [Example 150, N-[3-(4-amino-2-butyl-1H-imidazo[4,5-c]quinolin-1-yl)propyl]-N′-butylurea] | 0.04 | 0.37
193.4 to 194.6 | CCCCc1nc2c(N)nc3ccccc3c2n1CCCNC(=O)N1CCOCC1 [Example 151, N-[3-(4-amino-2-butyl-1H-imidazo[4,5-c]quinolin-1-yl)propyl]morpholine-4-carboxamide] | 0.01 | 0.01
144.5 to 145.5 | CCCCc1nc2c(N)nc3ccccc3c2n1CCCNC(=S)NCCC [Example 152, N-[3-(4-amino-2-butyl-1H-imidazo[4,5-c]quinolin-1-yl)propyl]-N′-propylthiourea] | 0.04 | 0.04
200 to 201 | CCCCc1nc2c(N)nc3ccccc3c2n1CCCNC(=O)NC1CCCCC1 [Example 153, N-[3-(4-amino-2-butyl-1H-imidazo[4,5-c]quinolin-1-yl)propyl]-N′-cyclohexylurea] | 0.01 | 0.12
153 to 155 | CCCCc1nc2c(N)nc3ccccc3c2n1CCCCCCCCNC(=O)Nc1ccccc1 [Example 154, N-[8-(4-amino-2-butyl-1H-imidazo[4,5-c]quinolin-1-yl)octyl]-N′-phenylurea] | 0.37 | 1.11
170.4 to 171.6 | CCCCCCc1nc2c(N)nc3ccccc3c2n1CCCCNC(=O)Nc1ccccc1 [Example 155, N-[4-(4-amino-2-hexyl-1H-imidazo[4,5-c]quinolin-1-yl)butyl]-N′-phenylurea] | 3.33 | 10
172 to 173 | CCCNC(=S)NCCCn1c(CCOC)nc2c(N)nc3ccccc3c21 [Example 156, N-{3-[4-amino-2-(2-methoxyethyl)-1H-imidazo[4,5-c]quinolin-1-yl]propyl}-N′-propylthiourea] | 0.01 | 1.11
199 to 200 | COCCc1nc2c(N)nc3ccccc3c2n1CCCNC(=S)NC1CCCCC1 [Example 157, N-{3-[4-amino-2-(2-methoxyethyl)-1H-imidazo[4,5-c]quinolin-1-yl]propyl}-N′-cyclohexylthiourea] | 0.37 | 1.11
179 to 180 | COCCc1nc2c(N)nc3ccccc3c2n1CCCNC(=O)NC1CCCCC1 [Example 158, N-{3-[4-amino-2-(2-methoxyethyl)-1H-imidazo[4,5-c]quinolin-1-yl]propyl}-N′-cyclohexylurea] | 0.01 | 1.11
159 to 160.4 | CCCCCc1nc2c(N)nc3ccccc3c2n1CCCCNC(=O)Nc1ccccc1 [Example 159, N-[4(4-amino-2-pentyl-1H-imidazo[4,5-c]quinolin-1-yl)butyl]-N′-phenylurea] | 1.11 | 10
182.8 to 184 | CCCc1nc2c(N)nc3ccccc3c2n1CCCCNC(=O)Nc1ccccc1 [Example 160, N-[4-(4-amino-2-propyl-1H-imidazo[4,5-c]quinolin-1-yl)butyl]-N′-phenylurea] | 0.12 | 1.11
159 to 160 | CCCCNC(=O)NCCCn1c(CCOC)nc2c(N)nc3ccccc3c21 [Example 162, N-{3-[4-amino-2-(2-methoxyethyl)-1H-imidazo[4,5-c]quinolin-1-yl]propyl}-N′-butylurea] | 0.01 | 0.04
194 to 196 | COCCc1nc2c(N)nc3ccccc3c2n1CCCNC(=O)N1CCOCC1 [Example 163, N-{3-[4-amino-2-(2-methoxyethyl)-1H-imidazo[4,5-c]quinolin-1-yl]propyl}morpholine-4-carboxamide] | 0.01 | 0.01
185 to 187 | CCCCc1nc2c(N)nc3ccccc3c2n1CCCCNC(=O)Nc1ccccc1 [Example 164, N-[4-(4-amino-2-butyl-1H-imidazo[4,5-c]quinolin-1-yl)butyl]-N′-phenylurea] | 0.04 | 0.12
133.6 to 134.6 | Cc1nc2c(N)nc3c(c2n1CCCCNC(=O)N1CCOCC1)CCCC3 [Example 170, N-[4-(4-amino-2-methyl-6,7,8,9-tetrahydro-1H-imidazo[4,5-c]quinolin-1-yl)butyl]morpholine-4-carboxamide] | 0.12 | 10
71.5 to 72.1 | Nc1nc2ccccc2c2c1nc(CCCOc1ccccc1)n2CCCCNC(=O)N1CCOCC1 [Example 171, N-{4-[4-amino-2-(3-phenoxypropyl)-1H-imidazo[4,5-c]quinolin-1-yl]butyl}morpholine-4-carboxamide] | > 30 | 10
196 to 198 | CC(C)(C)OC(=O)NCCCn1cnc2c(N)nc3ccccc3c21 [Example 173, tert-butyl 3-(4-amino-1H-imidazo[4,5-c]quinolin-1-yl)propylcarbamate] | 1.11 | 10
151 to 153 | CC(C)(C)OC(=O)NCCCn1c(CCCOc2ccccc2)nc2c(N)nc3ccccc3c21 [Example 174, tert-butyl 3-[4-amino-2-(3-phenoxypropyl)-1H-imidazo[4,5-c]quinolin-1-yl]propylcarbamate] | > 30 | > 30
124 to 126 | CCOCc1nc2c(N)nc3ccccc3c2n1CCCNC(=O)OC(C)(C)C [Example 175, tert-butyl 3-[4-amino-2-(ethoxymethyl)-1H-imidazo[4,5-c]quinolin-1-yl]propylcarbamate] | 0.04 | 0.37

Source: patent US7157453B2, “Urea substituted imidazoquinolines” (3M Innovation Properties Company, priority 1999, dated 2007)
